Where two headings read alike, the source gives them in different places.
Columns and labels:
[1] = tested on: NCI-H358 cells (K-Ras G12C); assay: Potency assay: pERK in NCI-H358 cells; type: cell-based, human; conditions: Homo sapiens, NCI-H358; H358 KRAS G12C; read-out: pERK EC50
Experimental: The purpose of this assay is to measure the ability of test compounds to inhibit K-Ras in cells. […] This procedure measures a decrease in cellular pERK in response to test compounds.
NCI-H358 cells were grown and maintained using media and procedures recommended by the ATCC. On the day prior to compound addition, cells were plated in 384-well cell culture plates (40 μl/well) and grown overnight in a 37° C., 5% CO2 incubator. Test compounds were prepared in 10, 3-fold dilutions in DMSO, with a high concentration of 10 mM. On the day of assay, 40 nL of test compound was added to each well of cell culture plate using an Echo550 liquid handler (LabCyte®). Concentrations of test compound were tested in duplicate. After compound addition, cells were incubated 4 hours at 37° C., 5% CO2. Following incubation, culture medium was removed and cells were washed once with phosphate buffered saline.
In some experiments, cellular pERK level was determined using the AlphaLISA SureFire Ultra p-ERK1/2 Assay Kit (PerkinElmer). Cells were lysed in 25 μL lysis buffer, with shaking at 600 RPM at room temperature. […] After a 2-hour incubation in the dark, 5 μL donor mix was added, plate was sealed, and incubated 2 hours at room temperature. Signal was read on an Envision plate reader (PerkinElmer) using standard AlphaLISA settings. Analysis of raw data was carried out in Excel (Microsoft) and Prism (GraphPad). Signal was plotted vs. the decadal logarithm of compound concentration, and IC50 was determined by fitting a 4-parameter sigmoidal concentration response model.
In other experiments, cellular pERK was determined by In-Cell Western. […] Fixed cells were washed 4 times for 5 minutes with TBS containing 0.1% Triton X-100 (TBST) and then blocked with 100 μL Odyssey blocking buffer (LI-COR) for 60 minutes at room temperature. […] Cells were washed 4 times for 5 minutes with TBST. Secondary antibody (IR-800CW rabbit, LI-COR, diluted 1:800) and DNA stain DRAQS (LI-COR, diluted 1:2000) were added and incubated 1-2 hours at room temperature. Cells were washed 4 times for 5 minutes with TBST. Plates were scanned on a Li-COR Odyssey CLx Imager. Analysis of raw data was carried out in Excel (Microsoft) and Prism (Graph Pad). Signal was plotted vs. the decadal logarithm of compound concentration, and IC50 was determined by fitting a 4-parameter sigmoidal concentration response model.

NCI-H358 (K-Ras G12C) = assay: CellTiter-Glo cell viability assay, NCI-H358; type: cell-based, human; conditions: NCI-H358, 5-day treatment, class symbols, read-out: Additional H358 Cell Viability assay data (K-Ras G12C, IC50)
Experimental: Note—The following protocol describes a procedure for monitoring cell viability of K-Ras mutant cancer cell lines in response to a compound of the invention. Other RAS isoforms may be employed, though the number of cells to be seeded will vary based on cell line used.
Test compounds (132.5 nL) were directly dispensed into the assay plates containing cells. […] On day 5, assay plates and their contents were equilibrated to room temperature for approximately 30 minutes. […] Luminescence was measured using the PerkinElmer Enspire. Data were normalized by the following: (Sample signal/Avg. DMSO)*100. The data were fit using a four-parameter logistic fit.

SMILES	EC50 [1] [nM]	IC50 (NCI-H358 (K-Ras G12C); Homo sapiens, NCI-H358, 120 h) [nM]	IC50 (NCI-H358 (K-Ras G12C)) [nM]
C=CC(=O)N1CC[C@H](C(=O)N(C)[C@H](C(=O)N[C@H]2Cc3cc(O)cc(c3)-c3ccc4c(c3)c(c(-c3cccnc3[C@H](C)OC)n4CC)CC(C)(C)COC(=O)[C@@H]3CCCN(N3)C2=O)C(C)C)C1 (atropisomer, axis not shown; (M)) [Example A75, (2S)-N-[(8S,14S,20M)-22-ethyl-4-hydroxy-21-{2-[(1S)-1-methoxyethyl]pyridin-3-yl}-18,18-dimethyl-9,15-dioxo-16-oxa-10,22,28-triazapentacyclo[18.5.2.1^2,^6.1^10,^14.0^23,^27]nonacosa-1(26),2,4,6(29),20,23(27),24-heptaen-8-yl]-3-methyl-2-{N-methyl-1-[(3S)-1-(prop-2-enoyl)pyrrolidin-3-yl]formamido}butanamide]	< 5000	10 to 100	< 10
C=CC(=O)N1CC[C@H](C(=O)N(C)[C@H](C(=O)N[C@H]2Cc3cc(O)cc(c3)-c3ccc4c(c3)c(c(-c3ccc(CN5CC[C@@H](O)C5)cc3)n4CC)CC(C)(C)COC(=O)[C@@H]3CCCN(N3)C2=O)C(C)C)C1 [Example A1]	< 5000	100 to 1000	
C=CC(=O)N1CC[C@H](C(=O)N(C)[C@H](C(=O)N[C@H]2Cc3cc(N)cc(c3)-c3ccc4c(c3)c(c(-c3ccccc3CCOC)n4CC)CC(C)(C)COC(=O)[C@@H]3CCCN(N3)C2=O)C(C)C)C1 [Example A2, (2S)-N-[(8S,14S)-4-amino-22-ethyl-21-[2-(2-methoxyethyl)phenyl]-18,18-dimethyl-9,15-dioxo-16-oxa-10,22,28-triazapentacyclo[18.5.2.1^2,^6.1^10,^14.0^23,^27]nonacosa-1(26),2,4,6(29),20,23(27),24-heptaen-8-yl]-3-methyl-2-{N-methyl-1-[(3S)-1-(prop-2-enoyl)pyrrolidin-3-yl]formamido}butanamide]	< 5000	> 1000	
C=CC(=O)N1CC[C@H](C(=O)N(C)[C@H](C(=O)N[C@H]2Cc3cc(O)cc(c3)-c3ccc4c(c3)c(c(-c3ccc(CN(C)C)cc3)n4CC)CC(C)(C)COC(=O)[C@@H]3CCCN(N3)C2=O)C(C)C)C1 [Example A3]	< 5000	100 to 1000	
C=CC(=O)N1CC[C@H](C(=O)N(C)[C@H](C(=O)N[C@H]2Cc3cc(O)cc(c3)-c3ccc4c(c3)c(c(-c3ccccc3CN(C)C)n4CC)CC(C)(C)COC(=O)[C@@H]3CCCN(N3)C2=O)C(C)C)C1 [Example A5]	< 5000	10 to 100	
C=CC(=O)N1CC[C@H](C(=O)N(C)[C@H](C(=O)N[C@H]2Cc3cc(O)cc(c3)-c3ccc4c(c3)c(c(-c3ccccc3CCOC)n4CC)CC(C)(C)COC(=O)[C@@H]3CCCN(N3)C2=O)C2CCOCC2)C1 [Example A6]	< 5000	100 to 1000	
C=CC(=O)N1CC[C@H](C(=O)N(C)[C@H](C(=O)N[C@H]2Cc3cc(OC(=O)CCN4CCN(C)CC4)cc(c3)-c3ccc4c(c3)c(c(-c3ccccc3CCOC)n4CC)CC(C)(C)COC(=O)[C@@H]3CCCN(N3)C2=O)C(C)C)C1 [Example A7]	< 5000	100 to 1000	
C=CC(=O)N1CC[C@H](C(=O)N(C)[C@H](C(=O)N[C@H]2Cc3cc(OC(=O)CN)cc(c3)-c3ccc4c(c3)c(c(-c3ccccc3CCOC)n4CC)CC(C)(C)COC(=O)[C@@H]3CCCN(N3)C2=O)C(C)C)C1 [Example A8]	< 5000	100 to 1000	
C=CC(=O)N1CC[C@H](C(=O)N(C)[C@H](C(=O)N[C@H]2Cc3cc(cc(O)c3F)-c3ccc4c(c3)c(c(-c3ccccc3CCOC)n4CC)CC(C)(C)COC(=O)[C@@H]3CCCN(N3)C2=O)C(C)C)C1 [Example A9]	< 5000	100 to 1000	
C=CC(=O)N1CC[C@H](C(=O)N(C)[C@H](C(=O)N[C@H]2Cc3cc(O)cc(c3)-c3ccc4c(c3)c(c(-c3ccc(CN5CCCC5)cc3)n4CC)CC(C)(C)COC(=O)[C@@H]3CCCN(N3)C2=O)C(C)C)C1 [Example A10]	< 5000	10 to 100	
C=CC(=O)N1CCC(F)(C(=O)N(C)[C@H](C(=O)N[C@H]2Cc3cc(O)cc(c3)-c3ccc4c(c3)c(c(-c3ccccc3CCOC)n4CC)CC(C)(C)COC(=O)[C@@H]3CCCN(N3)C2=O)C(C)C)CC1 [Example A11]	< 5000	100 to 1000	
C=CC(=O)N1CCCN(C(=O)N(C)[C@H](C(=O)N[C@H]2Cc3cc(O)cc(c3)-c3ccc4c(c3)c(c(-c3ccccc3CCOC)n4CC)CC(C)(C)COC(=O)[C@@H]3CCCN(N3)C2=O)C(C)C)CC1 [Example A13]	< 5000	100 to 1000	
C=CC(=O)N1CCC(C(=O)N(C)[C@H](C(=O)N[C@H]2Cc3cc(O)cc(c3)-c3ccc4c(c3)c(c(-c3ccccc3CCOC)n4CC)CC(C)(C)COC(=O)[C@@H]3CCCN(N3)C2=O)C(C)C)CC1 [Example A14]	< 5000	100 to 1000	
C=CC(=O)N1CC[C@H](C(=O)N(C)[C@H](C(=O)N[C@H]2Cc3cc(O)cc(c3)-c3ccc4c(c3)c(c(-c3cccnc3COC)n4CC)CC(C)(C)COC(=O)[C@@H]3CCCN(N3)C2=O)C(C)C)C1 [Example A16]	< 5000	10 to 100	
C=CC(=O)N1CC[C@H](C(=O)N(C)[C@H](C(=O)N[C@H]2Cc3cc(O)cc(c3)-c3ccc4c(c3)c(c(-c3ccccc3OC)n4CC)CC(C)(C)COC(=O)[C@@H]3CCCN(N3)C2=O)C(C)C)C1 [Example A17]	< 5000	100 to 1000	
C=CC(=O)N1CCN(C(=O)N(C)[C@H](C(=O)N[C@H]2Cc3cc(O)cc(c3)-c3ccc4c(c3)c(c(-c3ccccc3CCOC)n4CC)CC(C)(C)COC(=O)[C@@H]3CCCN(N3)C2=O)C(C)C)CC1 [Example A18]	< 5000	100 to 1000	
CCn1c(-c2ccccc2CCOC)c2c3cc(ccc31)-c1cc(O)cc(c1)C[C@H](NC(=O)[C@H](C(C)C)N(C)C(=O)C1CCN(C(=O)/C=C/CN(C)C)CC1)C(=O)N1CCC[C@H](N1)C(=O)OCC(C)(C)C2 [Example A19]	< 5000	100 to 1000	
C=CC(=O)N1CCC(F)(C(=O)N(C)[C@H](C(=O)N[C@H]2Cc3cc(O)cc(c3)-c3ccc4c(c3)c(c(-c3ccccc3CN(C)C)n4CC)CC(C)(C)COC(=O)[C@@H]3CCCN(N3)C2=O)C(C)C)CC1 [Example A20]	< 5000	10 to 100	
C=CC(=O)N1CC[C@H](C(=O)N(C)[C@H](C(=O)N[C@H]2Cc3cc(O)cc(c3)-c3ccc4c(c3)c(c(-c3ccc(CC(=O)O)cc3)n4CC)CC(C)(C)COC(=O)[C@@H]3CCCN(N3)C2=O)C(C)C)C1 [Example A21]	< 5000	> 1000	
C=CC(=O)N1CC[C@H](C(=O)N(C)[C@H](C(=O)N[C@H]2Cc3cc(O)cc(c3)-c3ccc4c(c3)c(c(-c3ccccc3[C@H](C)OC)n4CC)CC(C)(C)COC(=O)[C@@H]3CCCN(N3)C2=O)C(C)C)C1 [Example A22]	< 5000	10 to 100	
C=CC(=O)N1CC[C@H](C(=O)N(C)[C@H](C(=O)N[C@H]2Cc3cc(O)cc(c3)-c3ccc4c(c3)c(c(-c3ccccc3)n4CC)CC(C)(C)COC(=O)[C@@H]3CCCN(N3)C2=O)C(C)C)C1 [Example A23]	< 5000	100 to 1000	
C=CC(=O)N1CC[C@H](C(=O)N(C)[C@H](C(=O)N[C@H]2Cc3cc(O)cc(c3)-c3ccc4c(c3)c(c(-c3c(F)cccc3CCOC)n4CC)CC(C)(C)COC(=O)[C@@H]3CCCN(N3)C2=O)C(C)C)C1 [Example A25]	< 5000	100 to 1000	
C=CC(=O)N1CC[C@H](C(=O)N(C)[C@H](C(=O)N[C@H]2Cc3cc(O)cc(c3)-c3ccc4c(c3)c(c(-c3ccccc3N3CCOCC3)n4CC)CC(C)(C)COC(=O)[C@@H]3CCCN(N3)C2=O)C(C)C)C1 [Example A26]	< 5000	100 to 1000	
C=CC(=O)N1CC[C@H](C(=O)N(C)[C@H](C(=O)N[C@H]2Cc3cc(O)cc(c3)-c3ccc4c(c3)c(c(-c3ccccc3COC)n4CC)CC(C)(C)COC(=O)[C@@H]3CCCN(N3)C2=O)C2CCCC2)C1 [Example A27]	< 5000	10 to 100	

— patent publication US11566007B2, “Ras inhibitors” (Revolution Medicines, Inc., priority 2019, dated 2023)
